BindingDB's records for doi:10.1021/ja00082a004 (Nci-Fcrdc, 1994)

Molecular target: T1, Dimer of Gag-Pol polyprotein [489-587] (Human immunodeficiency virus 1, UniProt P12497)
T1 construct: 489-587
Assay: Protease Inhibition Assay
Settings: pH 4.7; 30 °C
Method: HIV-1 protease activity was measured by a continuous fluorometric assay using the internally quenched fluorogenic substrate DABCYL-GABA-Ser-Gln-Tyr-Pro-Ile-Val-Gln-EDANS (BACHEM; M-1865) and a SPEX FluoroMax spectrofluorometer (excitation 340 nm, emission 490 nm). The apparent Ki was estimated by nonlinear regression (GraFit, Erithacus Software) to the equation for tight-binding inhibitor.

Work on `CC(C)[C@H](NC(=O)N(C)Cc1ccccn1)C(=O)N[C@@H](Cc1ccccc1)[C@@H](O)[C@H](O)[C@H](Cc1ccccc1)NC(=O)[C@@H](NC(=O)N(C)Cc1ccccn1)C(C)C` [(2S)-N-[(2S,3R,4R,5S)-3,4-dihydroxy-5-[(2S)-3-methyl-2-{[methyl(pyridin-2-ylmethyl)carbamoyl]amino}butanamido]-1,6-diphenylhexan-2-yl]-3-methyl-2-{[methyl(pyridin-2-ylmethyl)carbamoyl]amino}butanamide] yielded a Ki of 0.112 nM.
`CC(C)[C@H](NC(=O)N(C)Cc1ccccn1)C(=O)N[C@@H](Cc1ccccc1)[C@H](O)[C@H](O)[C@H](Cc1ccccc1)NC(=O)[C@@H](NC(=O)N(C)Cc1ccccn1)C(C)C` [(2S)-N-[(2S,3R,4S,5S)-3,4-dihydroxy-5-[(2S)-3-methyl-2-{[methyl(pyridin-2-ylmethyl)carbamoyl]amino}butanamido]-1,6-diphenylhexan-2-yl]-3-methyl-2-{[methyl(pyridin-2-ylmethyl)carbamoyl]amino}butanamide] gave a Ki of 0.012 nM.
For `CC(C)[C@H](NC(=O)N(C)Cc1ccccn1)C(=O)N[C@@H](Cc1ccccc1)C[C@@H](O)[C@H](Cc1ccccc1)NC(=O)[C@@H](NC(=O)N(C)Cc1ccccn1)C(C)C` [(2S)-N-[(2S,3R,5S)-3-hydroxy-5-[(2S)-3-methyl-2-{[methyl(pyridin-2-ylmethyl)carbamoyl]amino}butanamido]-1,6-diphenylhexan-2-yl]-3-methyl-2-{[methyl(pyridin-2-ylmethyl)carbamoyl]amino}butanamide], the Ki was 0.004 nM.
Work on `CC(C)[C@H](NC(=O)N(C)Cc1ccccn1)C(=O)N[C@@H](Cc1ccccc1)[C@H](O)[C@@H](O)[C@H](Cc1ccccc1)NC(=O)[C@@H](NC(=O)N(C)Cc1ccccn1)C(C)C` [JMC51852 Inhibitor PP] yielded a Ki of 0.011 nM.
